# According to patent publication US20230295134A1, “USE OF PHENYLQUINOLINONE DERIVATIVE OR FLAVONOID DERIVATIVE FOR TREATING NEUROPATHIC PAIN” (HANGZHOU BIO-SINCERITY PHARMA-TECH CO., LTD., priority 2019, published 2023):
# Experiments:
# PSL model rats = assay: Heat pain threshold in partial sciatic nerve ligation (PSL) model; format: in vivo, SD rats; conditions: for heat pain threshold vs Pregabalin group: comparator 30 mg/kg Pregabalin
# Experimental: Male SD rats, weighting 200-250 g, were used to establish partial sciatic nerve ligation (PSL) model. The rats were subjected to ligation of the right sciatic nerve at high-tight level, so that ⅓-½ thickness of the sciatic nerve was trapped in the ligature, and then the wound was closed. The rats in sham group were subjected to the same operative procedure as the PSL model but without nerve ligation. On the sixth day after operation, heat pain threshold was measured in PSL model rats with Plantar Test Apparatus (BME-410) for 2 days to choose rats with stable heat pain threshold, which were randomly divided into 5 groups: 1) model; 2) 30 mg/kg Pregabalin; 3) 3 mg/kg Compound I-6; 4) 1 mg/kg Compound I-6; and 5) 0.3 mg/kg Compound I-6. Group 2-5 were given corresponding medicines orally with the dose of 1 ml/100 g, while the Group model and normal were given saline of the same volume with the same method. Heat pain threshold was measured before administration and 1, 2, 4, 6 h after intragastric administration, and the results were shown in FIG. 1.
# Male SD rats, weighting 200-250g, were used to establish partial sciatic nerve ligation (PSL) model. The rats were subjected to ligation of the right sciatic nerve at high-tight level, so that ⅓-½ thickness of the sciatic nerve was trapped in the ligature, and then the wound was closed. The rats in sham group were subjected to the same operative procedure as the PSL model but without nerve ligation. On the sixth day after operation, heat pain threshold was measured in PSL model rats with Plantar Test Apparatus (BME-410) for 2 days to choose rats with stable heat pain threshold, which were randomly divided into 7 groups: 1) model; 2) 50 mg/kg Gabapentin; 3) 100 mg/kg Carbamazepine; 4) 10 mg/kg Amitriptyline; 5) 1 mg/kg Compound I-4; 6) 1 mg/kg Compound I-6; and 7) 1 mg/kg Compound II-4. Group 2 -7 were given corresponding medicines orally with the dose of 1 ml/100 g, while the Group model and normal were given saline of the same volume with the same method. Heat pain threshold was measured before and 1, 2, 4, 6h after intragastric administration, and the results were shown in FIG. 2.
# CCI model rats [1] = assay: Mechanical withdrawal threshold in chronic constrictive injury (CCI) model, single dose; format: in vivo, SD rats
# Description: Male SD rats, weighting 200-250 g, were used to establish chronic constrictive injury (CCI) model. The common sciatic nerve was exposed at the level of the middle of the thigh, and 4 ligatures (4.0 chromic gut, 0.15 mm) were tied loosely with about 1-2 mm spacing to the position proximal to the sciatic's trifurcation. The rats in sham group were subjected to the same operative procedure as the CCI model but without nerve ligation. On the seventh day after operation, mechanical withdrawal threshold was measured in CCI model rats with Electric Von Frey (IITC-2391) for 2 days to choose rats with stable mechanical withdrawal threshold, which were divided into 5 groups: 1) model; 2) 50 mg/kg Gabapentin; 3) 9 mg/kg Compound I-4; 4) 3 mg/kg Compound I-4; and 5) 1 mg/kg Compound I-4. Group 2 -5 were given corresponding medicines orally with the dose of 1 ml/100 g, while the Group model and normal were given saline of the same volume with the same method. Mechanical withdrawal threshold was measured before administration and 1, 2, 4, 6 h after intragastric administration, and the results were shown in FIG. 3.
# ICR mice = assay: Security: intragastric administration of different dosages in mice; format: in vivo
# [2] = as above; format: in vivo; conditions: mouse, in vivo, po; ICR mice; intragastric administration; read-out: half lethal dose (LD50)
# [3] = In vivo pharmacokinetic studies (bioavailability); conditions: SD rats
# Experimental: The in vivo pharmacokinetic studies of Compound I-6 were conducted in SD rats (n=3).
# [4] = system: diabetic neuropathic pain model; assay: Heat pain threshold in STZ-induced diabetic neuropathic pain model; format: in vivo, SD rats; conditions: STZ rats; for heat pain threshold of diabetic neuropathic pain model: single dose PO, I-6 1 mg/kg, Gabapentin 50 mg/kg
# Experimental: Male SD rats (200-250 g) with normal blood sugar were fasted but had free access to water for 12 hours. The diabetes model was induced by intraperitoneal injection of 60 mg/kg streptozotocin (STZ), and was examined by 2-hour postprandial sugar level on day 7 after injection, which should be higher than 16 mmol/L. The rats in normal group were given an equal volume of citric acid-sodium citrate buffer (pH 4.2). On day 14 after injection, the heat pain threshold of rats in diabetes model or normal group were measured with Plantar Test Apparatus (BME-410) to examine the success of diabetic neuropathic pain model. The rats in diabetic neuropathic pain model were divided into 3 groups: 1) model; 2) 50 mg/kg Gabapentin; and 3) 1 mg/kg Compound I-6. Group 2 and 3 were given corresponding medicines orally with the dose of 1 ml/100 g, while the Group model and normal were given saline of the same volume with the same method. Heat pain threshold was measured before administration and 1, 2, 4, 6 h after administration, and the results were shown in FIG. 4.
# CCI model rats [5] = assay: Mechanical withdrawal threshold in CCI model, 5 days repeated administration; format: in vivo, SD rats
# Description: Male SD rats, weighting 200-250 g, were used to establish CCI model. The common sciatic nerve was exposed at the level of the middle of the thigh, and 4 ligatures (4.0 chromic gut, 0.15 mm) were tied loosely with about 1-2 mm spacing to the position proximal to the sciatic's trifurcation, then the wound was closed. The rats in sham group were subjected to the same operative procedure as the CCI model but without nerve ligation. On the seventh day after operation, mechanical withdrawal threshold was measured in CCI model rats with Electric Von Frey (IITC-2391) for 2 days to choose rats with stable mechanical withdrawal threshold, which were divided into 5 groups: 1) model; 2) 50 mg/kg Gabapentin; 3) 3 mg/kg Compound I-10; 4) 1 mg/kg Compound I-10; and 5) 0.3 mg/kg Compound I-10. Group 2-5 were given corresponding medicines orally with the dose of 1 ml/100 g for 5 days, while the Group model and normal were given saline of the same volume with the same method. Mechanical withdrawal threshold was measured before and 2 h after intragastric administration, and the results were shown in FIG. 6.
# [6] = system: OXA neuropathic pain model rats; assay: Mechanical withdrawal threshold in Oxaliplatin chemotherapy-induced neuropathic pain model; format: in vivo, SD rats; conditions: for mechanical withdrawal threshold vs Pregabalin: 2nd-4th hour after administration
# Experimental: Male SD rats (200-250 g) were injected 4 mg/kg of Oxaliplatin by intraperitoneal on day 1, 2, 8, 9, 15, 16, 22 and 23 to establish chemotherapy-induced neuropathic pain model. On day 24, the mechanical withdrawal threshold of rats in group normal and model were measured with Electric Von Frey (IITC-2391) to choose rats with stable mechanical withdrawal threshold, which were randomly divided into 5 groups: 1) model; 2) 30 mg/kg Pregabalin; 3) 9 mg/kg Compound II-4; 4) 3 mg/kg Compound II-4; and 5) 1 mg/kg Compound II-4. Group 2 -5 were given corresponding medicines orally with the dose of 1 ml/100g, while the Group model and normal were given saline of the same volume with the same method. Mechanical withdrawal threshold was measured before administration and 1, 2, 4, 6h after single administration, and the results were shown in FIG. 5.
# [7] = 1 mg/kg PO single dose, since 1 hour after administration
# [8] = 1 mg/kg PO, comparator 50 mg/kg Gabapentin
structure (smiles),measurement,setting,value
"Cn1c(-c2ccc(OCCCN3CCCCC3)cc2)cc(=O)c2ccccc21 [Compound I-4, 1-Methyl-2-(4-(3-(Piperidin-1-Yl)Propoxy)Phenyl)Quinolin-4(1H)-One]",heat pain threshold vs model group,PSL model rats; [7],significantly higher than model group
same,mechanical withdrawal threshold vs model group,"CCI model rats [1]; 3 mg/kg PO, 1st-4th hour after administration",significantly higher (P<0.01) than model group
same,"mechanical withdrawal threshold, relation to dose","CCI model rats [1]; single dose 1, 3 or 9 mg/kg PO",dose-dependent increase
same,effective time,"CCI model rats [1]; single dose PO, compared with 50 mg/kg Gabapentin",longer than Gabapentin
"CCn1c(-c2ccc(OCCCN3CCCCC3)cc2)cc(=O)c2ccccc21 [Compound I-6, 1-Ethyl-2-(4-(3-(Piperidin-1-Yl)Propoxy)Phenyl)Quinolin-4(1H)-One]",signs after intragastric administration,ICR mice; 64 mg/kg,no abnormal signs
same,signs after intragastric administration,ICR mice; 256 mg/kg,one of the mice given a dose of 256 mg/kg suffered convulsions but recovered on the second day
same,signs after intragastric administration,ICR mice; 1024 mg/kg,one of the mice given a dose of 1024 mg/kg suffered convulsions and finally died on the second day
same,LD50,[2],> 1020 mg/kg
same,heat pain threshold vs model group,"PSL model rats; 0.3 mg/kg PO, 2nd hour after administration",significantly higher (P<0.01) than model group
same,heat pain threshold vs model group,PSL model rats; [7],significantly higher than model group
same,heat pain threshold vs Pregabalin group,PSL model rats; 1.0 mg/kg PO,raised to be compared to 30 mg/kg Pregabalin group
same,heat pain threshold vs sham group,"PSL model rats; 3.0 mg/kg PO, 1st-2nd hour after administration",further improved to the level equal to sham group
same,heat pain threshold vs Pregabalin group,"PSL model rats; 3.0 mg/kg PO, 1st-2nd hour",better than Pregabalin group
same,"heat pain threshold, relation to dose","PSL model rats; single dose 0.3, 1 or 3 mg/kg PO",increased in a dose-dependent manner
same,time at which peak plasma concentrations occur,[3]; P.O 10.0 mg/kg,2.00 ± 1.73 h
same,half-life,"[3]; Sprague-Dawley (SD), rat, plasma, iv, 1 mg/kg, I.V 1.00mg/kg",6 ± 1.43 h
same,bioavailability,"[3]; Sprague-Dawley (SD), rat, plasma, po, 10 mg/kg, read-out: absolute bioavailability",51.3%
same,half-life,"[3]; Sprague-Dawley (SD), rat, plasma, po, P.O 10.0 mg/kg",3.79 ± 0.12 h
same,effective time vs Gabapentin,[4]; [8],longer effective time
same,heat pain threshold vs Gabapentin,[4]; [8],significantly higher heat pain threshold (P<0.01)
same,heat pain threshold of diabetic neuropathic pain model,[4],could improve the heat pain threshold
"COc1c(-c2ccc(OCCCN3CCCCC3)cc2)n(C)c2ccccc2c1=O [Compound I-10, 3-Methoxy-1-Methyl-2-(4-(3-(Piperidin-1-Yl)Propoxy)Phenyl)Quinolin-4(1H)-One]",mechanical withdrawal threshold vs model group,"CCI model rats [5]; 1 mg/kg PO for 5 days, 1st-5th day after administration",significantly higher (P<0.01) than model group
same,dose-dependency and stability of efficacy,"CCI model rats [5]; 5 days PO, compared with 50 mg/kg Gabapentin",better dose-dependency and stability of efficacy compared to Gabapentin
same,"mechanical withdrawal threshold, relation to dose","CCI model rats [5]; repeated administration 5 days, 0.3, 1 or 3 mg/kg PO",increased in a dose-dependent manner
"COc1c(-c2ccc(OCCCN3CCCCC3)cc2)oc2ccccc2c1=O [Compound II-4, 3-Methoxy-2-(4-(3-(Piperidin-1-Yl)Propoxy)Phenyl)-4H-Chromen-4-One]",heat pain threshold vs model group,PSL model rats; [7],significantly higher than model group
same,mechanical withdrawal threshold vs model group,"[6]; 1 mg/kg PO, 1st-2nd hour after administration",significantly higher (P<0.01) than model group
same,mechanical withdrawal threshold vs Pregabalin,[6]; 3 mg/kg PO,significantly higher (P<0.05) than 30 mg/kg Pregabalin
same,mechanical withdrawal threshold vs Pregabalin,[6]; 9 mg/kg PO,significantly higher (P<0.05) than 30 mg/kg Pregabalin
same,"mechanical withdrawal threshold, relation to dose","[6]; single dose 1, 3 or 9 mg/kg PO",dosage-dependent increase
same,improvement of mechanical withdrawal threshold compared with Pregabalin,[6]; single dose PO,more effectively and longer
"NCC1(CC(=O)O)CCCCC1 [Gabapentin, reference compound]",mechanical withdrawal threshold vs model group,CCI model rats [1]; 50 mg/kg PO single dose,only remained significantly higher than model group during 1st-2nd hour
same,mechanical withdrawal threshold vs model group,CCI model rats [5]; 50 mg/kg PO for 5 days,only kept the significant difference during 2nd-5th day
same,heat pain threshold of diabetic neuropathic pain model,[4],could improve the heat pain threshold
"CC(C)C[C@H](CN)CC(=O)O [Pregabalin, reference compound]",onset of action on mechanical withdrawal threshold,[6]; 30 mg/kg PO,rapid action
